Laboratory results as given in PMC5055303, “Identification and Tumour-Binding Properties of a Peptide with High Affinity to the Disialoganglioside GD2” (PLoS ONE, 2016).

How the values were obtained:
[1] = system: IMR32-induced xenografts; assay: Distribution of 111In- and 68Ga-labelled DOTA peptides in vivo (gamma counter); parameters: species or system NMRI nude mice
Experimental: ^111In was solved in HCl and a pH 3 was adjusted. DOTA peptides (100 μg) were diluted in the same volume of sodium acetate buffer (pH 5.0). Next, a 1:1 mixture (v/v) of the ^111In /HCl solution and the peptide solution was heated to 80°C for 10 minutes before applying it to a C18 reverse-phase cartridge (Strata™-X 33 μm Polymeric Reversed Phase, Phenomenex, Aschaffenburg, Germany). After washing twice with 5 ml water, elution of the ^111In–labelled peptide was achieved using ethanol abs. and volume was adjusted to 100 μl using isotonic NaCl solution.
^111In—labelled DOTA peptides (200–700 kBq) or ^68Ga—labelled DOTA peptides (80–400 kBq) were injected intravenously into mice bearing IMR32-induced (2 x 10^7 cells s.c.) xenografts. Organs and blood of mice were collected between 5 min and 24 h after injection and their radioactive content was quantified using a gamma counter (Automatic Gamma Counter 1480 Wizard TM 3”). The injected dose was calculated by weighing the syringe with and without the tracer. Activity concentrations were corrected for radioactive decay. To evaluate the effects of kidney protection, a mixture containing Gelofusine (80μg/ g bodyweight)/lysine (400μg/ g weight)/arginine (400μg/ g weight) was injected i.v. 5 minutes before application of the tracer. Here, organs and blood were collected 1 h after injection. To compare ^68Ga -labelled peptides with the clinically established tracer, one group of tumour bearing mice received ^124I -MIBG (100–200 kBq) by intravenous injection.

[2] = Phage binding assay on immobilized GD2; parameters: species or system human; conditions: 10 μg GD2 per well, 1 × 10^11 pfu phage, DPBS/Tween20 (0.3%), 1 h room temperature, Fig 1A-C
Experimental: 96-well microtiter plates (Greiner, Frickenhausen, Germany) were coated with 10 μg GD2 or 10 μg GD1b per well for one hour at room temperature. Wells were then washed 3 times with DPBS/Tween20 (0.05%), blocked with BSA (1%)/DPBS/Tween20 (0.05%) for 1 hour at room temperature, washed again and subsequently filled with H2O. Plates were stored at 8°C until use. For in vitro selection, 2 x 10^11 plaque forming units (pfu) of the unselected M13 Ph.D.-7 phage display peptide library or the phage pool of the subsequent selection rounds was incubated with DPBS/Tween20 (0.1%, 0.2%, 0,3% or 0,4%) in a GD1b coated well for 1 hour at room temperature on a shaker. The phage solution was then transferred to a well containing GD2 and incubated for 1 hour at room temperature. After washing 10 times with DPBS/Tween20 (0.1%, 0.2%, 0,3% or 0,4%), bound phages were eluted by addition of E. coli ER2738 (OD600nm 0.4–0.5) for 30 minutes at 37°C. Phage amplification in 20 ml suspension containing E. coli ER2738 (hereafter referred to as phage pool) and titer determination were performed according to the manufacturer’s instructions with the modification that X-Gal was replaced by S-Gal and ferric ammonium citrate (both obtained from Sigma, Taufkirchen, Germany). For in vivo selection, 2 x 10^11 pfu of the phage pool of the 3rd selection round were injected into the tail vein of a mouse with a xenograft tumour induced by inoculation of IMR32 cells (2 x 10^7). Anaesthetised mice were perfused with DPBS 10 min after phage application. Tumours were explanted, homogenized in LB-medium and the phages were eluted with 900 μl of an E. coli ER2738 suspension at 37°C for 30 minutes in an incubator. Of this suspension, 10 μl were used for the determination of the phage titer. The residual volume was used for phage amplification in 20 ml E. coli ER2738 suspension according to the manufacturer’s instructions. Wells were coated with GD3, GD2, GD1b, GT1b or BSA (10 μg/ well each). For competition experiments, coated wells were pre-incubated with serial dilutions ranging from 10 μg to 100 pg of an 11-mer GD2-specific-peptide in DPBS for one hour at room temperature on a shaker and the supernatant was removed. In total, 1 × 10^11 pfu of the amplified phages were incubated with DPBS/Tween20 (0.3%) for one hour at room temperature on a shaker. After washing with 10 volumes of DPBS/Tween20 (0.3%), bound phages were eluted by adding E. coli ER2738 and phage titer determination was performed as described above. Additionally, an in vivo competition assay was performed in tumour-bearing mice. Therefore, 200 μg of the GD2-specific peptide and 1×10^11 pfu of the phage encoding the same peptide were co-injected intravenously in three IMR32 tumour bearing mice per experiment. Tumours were subsequently harvested and the phage titers were determined as described above.

[3] = system: IMR32-induced xenografts; conditions: 1×10^11 pfu i.v., 10 min circulation; for phage recovery from tumour tissue: perfusion with DPBS, WHWRLPS-phage vs. control phage
Experimental: Human IMR32 tumour cells were injected subcutaneously (s.c.) in the right and left femoral region of anesthetized NMRI nude mice (1×10^7 IMR32 cells in 50 μl DPBS and 150 μl Matrigel (BD)). For PET imaging, IMR32 cells were injected s.c. in the neck fold. Imaging and all other interventions were conducted on day 14 day after tumour cell inoculation.
Of the GD2-specific phage or a control phage (GHGRLPS), 1×10^11 pfu were injected intravenously in three IMR32 tumour bearing mice per phage after an i.p. application of the anaesthetics xylazine (16 mg/kg) and ketamine (100 mg/kg). After 10 minutes, the mice were perfused with DPBS and brain, muscle, stomach, kidneys, heart, lung, spleen, liver and tumour were explanted and weighed. Tissues were homogenized in LB-medium using an Ultra-Turrax T25 homogenizer (IKA Labortechnik, Staufen, Germany). Phages were eluted by the addition of E.coli ER2738 bacteria and the phage titers were determined as described above.

[4] = Phage binding assay on immobilized GD1b; parameters: species or system human; conditions: 10 μg GD1b per well, 1 × 10^11 pfu phage, 1 h room temperature, Fig 1A, 1B
Experimental: 96-well microtiter plates (Greiner, Frickenhausen, Germany) were coated with 10 μg GD2 or 10 μg GD1b per well for one hour at room temperature. Wells were then washed 3 times with DPBS/Tween20 (0.05%), blocked with BSA (1%)/DPBS/Tween20 (0.05%) for 1 hour at room temperature, washed again and subsequently filled with H2O. Plates were stored at 8°C until use. For in vitro selection, 2 x 10^11 plaque forming units (pfu) of the unselected M13 Ph.D.-7 phage display peptide library or the phage pool of the subsequent selection rounds was incubated with DPBS/Tween20 (0.1%, 0.2%, 0,3% or 0,4%) in a GD1b coated well for 1 hour at room temperature on a shaker. The phage solution was then transferred to a well containing GD2 and incubated for 1 hour at room temperature. After washing 10 times with DPBS/Tween20 (0.1%, 0.2%, 0,3% or 0,4%), bound phages were eluted by addition of E. coli ER2738 (OD600nm 0.4–0.5) for 30 minutes at 37°C. […]
Wells were coated with GD3, GD2, GD1b, GT1b or BSA (10 μg/ well each). […] Tumours were subsequently harvested and the phage titers were determined as described above.

[5] = Phage binding assay on immobilized GD3; parameters: species or system human; conditions: 10 μg GD3 per well; 1 × 10^11 pfu phage, 1 h room temperature; Fig 1B
Experimental: (§1) Wells were coated with GD3, GD2, GD1b, GT1b or BSA (10 μg/ well each). For competition experiments, coated wells were pre-incubated with serial dilutions ranging from 10 μg to 100 pg of an 11-mer GD2-specific-peptide in DPBS for one hour at room temperature on a shaker and the supernatant was removed. In total, 1 × 10^11 pfu of the amplified phages were incubated with DPBS/Tween20 (0.3%) for one hour at room temperature on a shaker. After washing with 10 volumes of DPBS/Tween20 (0.3%), bound phages were eluted by adding E. coli ER2738 and phage titer determination was performed as described above. Additionally, an in vivo competition assay was performed in tumour-bearing mice. Therefore, 200 μg of the GD2-specific peptide and 1×10^11 pfu of the phage encoding the same peptide were co-injected intravenously in three IMR32 tumour bearing mice per experiment. Tumours were subsequently harvested and the phage titers were determined as described above.

[6] = Phage binding assay on immobilized GT1b; parameters: species or system human; conditions: 10 μg GT1b per well; 1 × 10^11 pfu phage, 1 h room temperature; Fig 1B
Experimental: as §1

[7] = In vitro competition of WHWRLPS-phage binding to GD2 by soluble peptide; parameters: species or system human; conditions: Fig 2B
Experimental: as §1

[8] = system: IMR32 neuroblastoma cells; assay: Cell proliferation / viability assay (MTT); type: cell-based, human; conditions: 1 μg or 10 μg/ml peptide, maximum reduction after 96 h and 10 μg/ml vs. unrelated control peptide, quintuplicate, Fig 2A
Experimental: Proliferation of the human neuroblastoma cell line IMR32 upon peptide addition was evaluated using MTT assays as described. Peptides were used at a concentration of 1 μg and 10 μg per well in a total volume of 200 μl per well. For each time point and each peptide concentration, experiments and controls were performed in quintuplicate.

[9] = system: IMR32-induced xenografts; assay: In vivo competition of phage tumour homing by co-injected peptide; parameters: species or system NMRI nude mice; conditions: i.v. coinjection of 200 μg peptide and 1×10^11 pfu WHWRLPS-phage, 10 min; compared to injection of phage only; Fig 2D
Experimental: as §1

[10] = one hour after tracer injection, Fig 3C

Question: Which results are given for N=C(N)NCc1cccc([131I])c1 [124I-MIBG, metaiodobenzylguanidine, reference compound]?
Answer: accumulation in tumour tissue, 124I-MIBG vs. 68Ga-labelled peptide [1, 10]: comparable for both tracers; activity concentration in blood, 124I-MIBG vs. 68Ga-labelled peptide [1, 10]: higher; tissue with highest accumulation ([1]; one hour after tracer injection, thyroid not blocked, Fig 3C): thyroid

Question: For GHGRLGS, which “binding of phage to immobilized GD2 (phage output titer)” value (“binding of phage to immobilized GD2” below) [2] is on record?
Answer: impaired binding

Question: What does the source list for GHGRLPS?
Answer: binding of phage to immobilized GD2 (phage output titer) [2]: impaired binding; phage recovery from tumour tissue ([3]; Fig 2C): did not accumulate in tumour tissue

Question: With GHWRLPS as the compound, how does the “binding of phage to immobilized GD2” value [2] read?
Answer: impaired binding

Question: What does the source list for HAIYPRH [phage 2, reference compound]?
Answer: binding of phage to immobilized GD2 (phage output titer) [2]: did not bind; binding of phage to immobilized GD1b [4]: did not bind; binding of phage to immobilized GD3 [5]: did not bind; binding of phage to immobilized GT1b [6]: did not bind

Question: Which “binding of phage to immobilized GD2” value [2] does the source give for WHGRLPS here?
Answer: impaired binding

Question: For WHWRLGS, which “binding of phage to immobilized GD2” value [2] is on record?
Answer: impaired binding

Question: With WHWRLPS [WHWRLPS-peptide] as the compound, how does the “maximum reduction of WHWRLPS-phage binding to GD2” value ([7]; in the presence of 10 μg peptide, wells pre-incubated with peptide 1 h) read?
Answer: 82%

Question: What about the “peptide concentration sufficient to significantly reduce phage binding to GD2” value ([7]; lowest dilution of the series 10 μg to 100 pg, p < 0.05 vs. 0 μg peptide) of the same compound?
Answer: 100 pg/mL

Question: What about the “effect on IMR32 cell viability” value [8] of the same compound?
Answer: reduce cell viability

Question: What about the “reduction of WHWRLPS-phage recovery from tumour tissue” value [9] of the same compound?
Answer: 84%

Question: What does the source list for WHWRLPS [WHWRLPS-phage]?
Answer: binding of phage to immobilized GD2 (phage output titer) [2]: specifically bound; binding of phage to immobilized GD2 (phage output titer) ([2]; listed as phage 7): high affinity; binding of phage to immobilized GD1b ([4]; listed as phage 7): lower affinity; phage recovery from tumour tissue ([3]; Fig 2C): Significantly higher amounts; organs with phage accumulation ([3]; attributed to mononuclear phagocytic system): liver, the spleen and, to a lesser extent, in the lung; phage recovery from other organs ([3]; compared with control phage (GHGRLPS), Fig 2C): lower than that of the control

Question: With “WHWRLPS-DOTA [68Ga-labelled WHWRLPS peptide, WHWRLPS-DOTA peptide labelled with 68Ga]” as the compound, how does the “accumulation in tumour tissue, 124I-MIBG vs. 68Ga-labelled peptide” value ([1]; mouse, in vivo) read?
Answer: comparable for both tracers

Question: And the “tissue with highest accumulation” value ([1]; mouse, in vivo)?
Answer: kidney

Question: And the “radioactive load in the kidneys with kidney protection” value ([1]; mouse, in vivo, iv)?
Answer: reduced

Question: What about the “radioactivity in the blood with kidney protection” value ([1]; mouse, in vivo, iv) of the same compound?
Answer: higher accumulation

Question: What about the “tumour-specific uptake, 68Ga- vs. 111In-labelled peptide” value ([1]; mouse, in vivo, iv) of the same compound?
Answer: higher tumour-specific uptake

Question: And the “uptake across tissues in comparison to 111In-labelled peptides” value ([1]; mouse, in vivo, iv)?
Answer: higher uptake across all tissues
